# Experiments:
# Assay in all cases: relative viability (nuclei count vs DMSO), 5 days (fraction); higher = more cells survive
# [1] = compound: C1=CC2=NC=CN=C2C=C1/C=C/3\C(=O)NC(=O)S3 + CC(=O)Nc1cccc(-n2c(=O)n(C3CC3)c(=O)c3c(Nc4ccc(I)cc4F)n(C)c(=O)c(C)c32)c1 [Trametinib] (partner 0.02 µM)
# In short: (§1)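 Dosing by pin tool came one day after lung cancer cell lines were seeded in 1536-well plates, using either one drug or a fixed anchor-drug dose plus five library-drug doses (not always all listed) in √10 steps. After 5 days, nuclei were counted on 4× images. Relative viability is treated-well nuclei count divided by vehicle-well nuclei count, and values are medians of duplicate plates.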
# [2] = compound: C1=CC2=NC=CN=C2C=C1/C=C/3\C(=O)NC(=O)S3 + CC(=O)c1c(C)c2cnc(Nc3ccc(N4CCNCC4)cn3)nc2n(C2CCCC2)c1=O [Palbociclib] (partner 0.5 µM)
# In short: as §1
# [3] = compound: C1=CC2=NC=CN=C2C=C1/C=C/3\C(=O)NC(=O)S3 + CC1(C)CCC(c2ccc(Cl)cc2)=C(CN2CCN(c3ccc(C(=O)NS(=O)(=O)c4ccc(N[C@H](CCN5CCOCC5)CSc5ccccc5)c(S(=O)(=O)C(F)(F)F)c4)cc3)CC2)C1 [Navitoclax] (partner 0.5 µM)
# In short: as §1
# [4] = compound: C1=CC2=NC=CN=C2C=C1/C=C/3\C(=O)NC(=O)S3 + C[C@]1(O)C[C@@H](c2nc(-c3ccc4ccc(-c5ccccc5)nc4c3)c3c(N)nccn32)C1 [Linsitinib] (partner 1 µM)
# In short: as §1
Cell Line,relative viability ([1]; first compound 0.02 µM),relative viability ([1]; first compound 0.06325 µM),relative viability ([1]; first compound 0.2 µM),relative viability ([1]; first compound 0.6325 µM),relative viability ([1]; first compound 2 µM),relative viability ([2]; first compound 0.02 µM),relative viability ([2]; first compound 0.06325 µM),relative viability ([2]; first compound 0.2 µM),relative viability ([2]; first compound 0.6325 µM),relative viability ([2]; first compound 2 µM),relative viability ([3]; first compound 0.02 µM),relative viability ([3]; first compound 0.06325 µM),relative viability ([3]; first compound 0.2 µM),relative viability ([3]; first compound 0.6325 µM),relative viability ([3]; first compound 2 µM),relative viability ([4]; first compound 0.02 µM),relative viability ([4]; first compound 0.06325 µM),relative viability ([4]; first compound 0.2 µM),relative viability ([4]; first compound 0.6325 µM),relative viability ([4]; first compound 2 µM)
LOU-NH91,0.791,0.808,0.799,0.792,0.726,0.501,0.538,0.556,0.552,0.548,0.686,0.659,0.685,0.641,0.657,0.982,1.01,0.928,0.954,0.97
LU99A,0.564,0.47,0.607,0.587,0.427,0.444,0.389,0.439,0.398,0.276,0.77,0.993,0.746,0.876,0.64,0.597,0.559,0.561,0.5,0.475
LXF-289,0.671,0.655,0.649,0.662,0.688,0.529,0.632,0.574,0.552,0.637,0.92,0.918,0.898,0.917,0.932,0.928,0.921,0.993,0.941,0.933
NCI-H23,0.346,0.489,0.361,0.394,0.223,0.513,0.547,0.577,0.509,0.349,0.714,1.18,0.828,0.868,0.635,0.575,0.649,0.717,0.588,0.603
NCI-H322M,0.535,0.507,0.469,0.503,0.383,0.553,0.491,0.477,0.454,0.455,1.05,1.12,1.35,1.11,1.16,1.06,0.85,0.982,0.896,0.918
NCI-H441,0.409,0.52,0.451,0.343,0.305,0.195,0.271,0.24,0.193,0.112,0.523,0.562,–,0.771,0.553,0.473,0.399,0.653,0.57,0.508
NCI-H460,0.0917,0.0921,0.223,0.11,0.0876,0.168,0.107,0.176,0.2,0.122,1.03,1.24,1.19,1.02,1.11,0.718,1.32,0.787,0.687,0.872
NCI-H520,0.648,0.65,0.812,0.664,0.62,0.211,0.246,0.251,0.181,0.201,1.15,1.49,1.08,1.04,1.01,0.931,1.15,1.11,0.969,1.03
